Where two headings read alike, the source gives them in different places.
Columns and labels:
[1] = tested on: A549 human non-small cell lung cancer cell line; assay: 72-hour (long term) cell killing effects; type: cell-based; details: CCK8
Method: Cell lines and Culture: Cell line A549 was cultured in DMEM medium (Gibco, Life Technologies, China). 10% HI fetal bovine serum was purchased from Gibco, Life Technologies, USA and 1% penicillin/streptomycin was obtained from Hyclone.
(§1) Approx. 2,000 cells in 50 μL complete medium were plated on each well of a 96-well plate and incubated at 37° C., 5% CO2 overnight. Drugs at concentrations of 0.02 μM to 10 μM were dissolved in 0.1% DMSO, followed by addition into each well. After incubation for 72 hours, 10 μL CCK8 (Dojindo) was added into each well, followed by incubation at 37° C. for another 4 hours. The OD values were obtained by TECAN Microplate Reader at 450 nm.
Processing of Compounds: For in vitro tests, compounds were directly dissolved in 10 mM DMSO and stored at −20° C.

[2] = Pharmacokinetics and organ distribution after intravenous administration of Sunitinib, Compound 1 and Compound 2 in mice; set-up: AUCiv: unit not given beside the values; details: mouse, in vivo
Text: Relative Exposure(RE)=AUCi sample/AUCi control
AUCi—area under curve for the i^th organ or tissue; RE>1 indicates targeting at the organ or tissue, with larger RE indicating greater targeting; RE≦1 indicates non-targeting.
RTE refers to the multiple of the percent of drug content in a tissue of sample group with respect to total drug amount in the body vs. that in a control group. Positive RTE values indicate enhanced targeting effects and the more positive the more the multiple of enhancement and the more the enhanced targeting. In contrast, negative RTE values indicate reduced targeting effects. Value 0 indicate no influence to the tissue.
0.083 h, 0.25 h, 0.5 h, 1 h, 3 h, 8 h post injection, blood was taken by eyeball removal and the mice were sacrificed by cervical dislocation. Tissues were perfused with normal saline and livers and kidneys were removed and cleaned with normal saline. The blood samples were centrifuged to obtain supernatants and stored at −20° C. 50 μL plasma sample and 50 μL internal standard (clozapine) working solution was vortexed with 300 μL MeOH and then centrifuged. 150 μL upper organic phase was obtained and mixed with 150 μL water, followed by centrifugation. 10 μL supernatant was sampled for analysis. The tissue samples were weighted and mixed homogeneously with 10 times weight of water. Since the samples were 10-time diluted, the concentration of the tissue would be 10 times the results determined. The heart tissue was 5-time diluted. 100 μL homogenate was mixed with 50 μL internal standard (clozapine) working solution and 300 μL MeOH and then centrifuged. 150 μL upper organic phase was obtained and mixed with 150 μL water, followed by centrifugation. 10 μL supernatant was sampled for analysis.

in vivo = type: in vivo; set-up: AUCpo: unit not given beside the values; details: mouse, in vivo
Text: Animal experiments: 24 mice in each group were divided into 8 sub-groups.

pSTAT3 = assay: Effects on STAT3 phosphorylation in A549 cell line; type: cell-based, human; details: 10 μM
Method: (§2) For in vitro tests, compounds were directly dissolved in 10 mM DMSO and stored at −20° C. For in vivo tests, the compounds were dissolved in DMSO and neutralized by Tween 80 (DMSO:Tween=1:1) and further neutralized by PBS (pH 7.4). The final concentrations of DMSO and Tween-80 were 5%.

[3] = tested on: A549; NCI-H460; 786-O; Caki-1; HT-29; MCF-7; assay: 72 hour cytotoxicity (CCK8) in different cell lines; type: cell-based, human
Text: A549 human non-small cell lung cancer cell line, NCI-H460 human non-small cell lung cancer cell line, 786-O human renal cell line, Caki-1 human renal cell line, HT-29 human colon cancer cell line, MDA-MB-231 human breast cancer cell line, and MCF-7 human breast cancer cell line was purchased from Chinese Academy of Science Shanghai Branch. PLC/PRF-5 human hepatoma cell line and Hepal-6 mouse hepatoma cell line were obtained from Institute of Biochemistry and Cell Biology, SIBS, CAS (SIBCB). Cell lines A549, Caki-1, HT-29, MDA-MB-231, MCF-7, PLC/PRF-5 and Hepal-6 were cultured in DMEM medium (Gibco, Life Technologies, China) and cell lines NCI-H460 and 786-O were cultured in RPMI-1640 medium (Gibco, Life Technologies, China). 10% HI fetal bovine serum was purchased from Gibco, Life Technologies, USA and 1% penicillin/streptomycin was obtained from Hyclone.
as §1, with “0.02” for “0.02 μM”
as §2

786-O cell or A549 cell = assay: Cell morphology and survival rate after 4 to 8 hours incubation; type: cell-based, human; details: for cell survival: 786-O cell or A549 cell, incubated for 8 hours; for cell morphology: cancer cells incubated for 4 hours
[4] = Acute toxicity test: maximum tolerance dosage (MTD) determination; type: in vivo, BALB/c mice
Method: Methods: Femal BALB/c mice, 4-5 weeks old, weighted greater than 17 g, were used for the test. […] The body weights and conditions of the mice were recorded.
In contrast, the body weights of mice in compound 2 group increased 6.0% in average.
To further explore the toxicity of the compounds, blood was collected after 14-day treatment of drugs and critical biochemical index were analyzed.

[5] = Stability of compounds 1 and 2 in MeOH stock solution and with biomass; type: physicochemical
Text: No prodrug was detected in organs except for spleen during processing. […] The prodrugs may be converted to Sunitinib or other metabolite during processing or in vivo.

cancer cell xenograft = assay: Pharmacodynamic tests on mice xenograft transplantation model; type: in vivo; details: intraperitoneally injected 1.5, 7.5, 30 mg/kg once a day for 2 weeks
Method: as §2
5×10^6 cancer cells were subcutaneously injected to the right side of mouse. Drug was intraperitoneally injected at dosages of 1.5 mg/kg, 7.5 mg/kg, 30 mg/kg to the mice, once a day, for 2 weeks when average tumor size reached 75 to 150 mm^3. The size of the tumor was measured every other day. […] Compound 1 had less efficacy.
We then performed the test through oral route. 5×10^6 cancer cells were subcutaneously injected to the right side of mouse. Drug was orally administered at dosages of 5 mg/kg, 15 mg/kg, 45 mg/kg to the mice, once a day, for 2 weeks when average tumor size reached 75 to 150 mm^3. The size of the tumor was measured every other day.

[6] = blood after 14-day treatment, 200 mg/kg
[7] = oral once a day for 14 days, 175 mg/kg
[8] = repeated test, oral once a day, 200 mg/kg

## CCN(CC)CCNC(=O)c1c(C)[nH]c(/C=C2\C(=O)N(COC(C)=O)c3ccc(F)cc32)c1C [Compound 10]
[1]
  IC50: 7.46 µM

## CCN(CC)CCNC(=O)c1c(C)[nH]c(/C=C2\C(=O)N(COC(=O)N(C)C)c3ccc(F)cc32)c1C [Compound 6, N-[2-(diethylamino)ethyl]-5-[(5-fluoro-2-oxo-1-(N,N-dimethylaminocarboxymethyl)-2,3-indolin-3-ylmethylene)]-2,4-dimethyl-1H-pyrrolidine-3-carboxamide]
[1]
  IC50: 8.46 µM

## CCN(CC)CCNC(=O)c1c(C)[nH]c(/C=C2\C(=O)N(COC(=O)c3ccc(OC)cc3)c3ccc(F)cc32)c1C [Compound 13, N-[2-(diethylamino)ethyl]-5-[(5-fluoro-2-oxo-1-(p-methoxyphenylcarboxymethyl)-2,3-indolin-3-ylmethylene)]-2,4-dimethyl-1H-pyrrolidine-3-carboxamide]
[1]
  IC50: 3 µM

## CCN(CC)CCNC(=O)c1c(C)[nH]c(/C=C2\C(=O)Nc3ccc(F)cc32)c1C.O=C(O)C[C@H](O)C(=O)O [Sunitinib, reference compound]
[2]; 5.14 mg/kg
  half-life: 74.4 min
[2]; iv, 5.14 mg/kg
  Tmax: 4.8 min
  clearance: 4.51 mL/min
[2]; iv, 5.14 mg/kg, AUCall
  AUC: 365 ng·h/mL
[2]; iv, AUCiv
  AUC: 365 ng·h/mL
In vivo
  bioavailability: 15%
In vivo; po
  AUC: 214 ng·h/mL
  bioavailability: 15.1%
In vivo; po, 20 mg/kg
  AUC(0-inf): 43.1 ng·h/mL
  Cmax: 9.58 ng/mL
  Tmax: 30 min
  half-life: 284 min
pSTAT3
  inhibition of pSTAT3: strong inhibition
[3]
  tumor killing effects / cytotoxicity: relatively strong tumor killing effects
[3]; 72 hours, CCK8, FIG. 5a-f
  IC50 values among several cell lines: comparable
786-O cell or A549 cell
  cell survival: did not affect cell survival
  cell morphology: remained attached, elongate, and did not exhibit abnormal morphology
[4]; [6]
  blood glucose: decreased
  levels of aspartate transaminase (AST) alanine aminotransferase (ALT) and cholinesterase (CHE): significantly elevated
  levels of lactate dehydrogenase (LDH), creatine kinase (CK) and creatine kinase-MB (CKMB): elevated
  levels of urate and blood urea nitrogen: increased
[4]; oral once a day for 14 days, 28 mg/kg and 70 mg/kg
  effects on the body weights: little effects
[4]; [7]
  average body weight reduce: 17.6%
  condition of the mice: extremely weak
[4]; repeated test, oral once a day, 100 mg/kg
  influence on body weight: body weights did not increase
[4]; [8]
  average body weight reduce: 20%
  condition of the mice: extremely weak

## CCOC(=O)OCN1C(=O)/C(=C\c2[nH]c(C)c(C(=O)NCCN(CC)CC)c2C)c2cc(F)ccc21 [Compound 8]
[1]
  IC50: 1.11 µM

## CCN(CC)CCNC(=O)c1c(C)[nH]c(C=C2C(=O)N(CC(=O)OC(C)(C)C)c3ccc(F)cc32)c1C [Compound 1, N-[2-(diethylamino)ethyl]-5-[(5-fluoro-2-oxo-1-(t-butylcarboxymethyl)-2,3-indolin-3-ylmethylene)]-2,4-dimethyl-1H-pyrrolidine-3-carboxamide]
[2]; iv
  AUCiv: 478.9
  Cl: 267.5 mL/h
  Cmax, times than that of the control: approx. 5 times
  RTE analysis: distribution proportions in organs: increased distribution proportions in liver and spleen
  Tmax: 4.8 min
In vivo; po
  AUCpo: 946.2
  Cl: 3848.9 mL/h
  Tmax: 30 min
  t1/2: 176 min
[5]
  stability in the event of coexisting with biomass: easy to degrade
[3]; 72 hours, CCK8, FIG. 5a-f
  IC50 values among several cell lines: comparable
  tumor killing effects / cytotoxicity: relatively strong tumor killing effects
786-O cell or A549 cell
  cell survival: mass cell death
  cell morphology: changed to round and suffered from stress
Cancer cell xenograft
  efficacy on tumor size: less efficacy

## CCN(CC)CCNC(=O)c1c(C)[nH]c(/C=C2\C(=O)N(COC(=O)C(C)C)c3ccc(F)cc32)c1C [Compound 12, N-[2-(diethylamino)ethyl]-5-[(5-fluoro-2-oxo-1-(isopropylcarboxymethyl)-2,3-indolin-3-ylmethylene)]-2,4-dimethyl-1H-pyrrolidine-3-carboxamide]
[1]
  IC50: 9.07 µM

## CCN(CC)CCNC(=O)c1c(C)[nH]c(/C=C2\C(=O)N(COC(=O)C3CCCCC3)c3ccc(F)cc32)c1C [Compound 9, N-[2-(diethylamino)ethyl]-5-[(5-fluoro-2-oxo-1-(cyclohexylcarboxymethyl)-2,3-indolin-3-ylmethylene)]-2,4-dimethyl-1H-pyrrolidine-3-carboxamide]
[1]
  IC50: 4 µM

## CCN(CC)CCNC(=O)c1c(C)[nH]c(/C=C2\C(=O)N(COC(=O)C3CC3)c3ccc(F)cc32)c1C [Compound 11]
[1]
  IC50: 2.56 µM

## CCN(CC)CCNC(=O)c1c(C)[nH]c(/C=C2\C(=O)N(COC(=O)OC(C)(C)C)c3ccc(F)cc32)c1C [Compound 7, N-[2-(diethylamino)ethyl]-5-[(5-fluoro-2-oxo-1-(t-butoxycarboxymethyl)-2,3-indolin-3-ylmethylene)]-2,4-dimethyl-1H-pyrrolidine-3-carboxamide]
[1]
  IC50: 1.79 µM

From patent publication US20180022734A1 (Sound Biopharmaceuticals Ltd., priority 2015, published 2018)
